Data from ChEMBL document CHEMBL3808281, “Investigation of the Structure-Activity Relationships of Aza-A-Ring Indenoisoquinoline Topoisomerase I Poisons” (J Med Chem, 2016).

Experiments:
[1] = biological target: T1, Tyrosyl-DNA phosphodiesterase 2 (Homo sapiens, UniProt O95551)
T1 sequence (O95551 whole entry): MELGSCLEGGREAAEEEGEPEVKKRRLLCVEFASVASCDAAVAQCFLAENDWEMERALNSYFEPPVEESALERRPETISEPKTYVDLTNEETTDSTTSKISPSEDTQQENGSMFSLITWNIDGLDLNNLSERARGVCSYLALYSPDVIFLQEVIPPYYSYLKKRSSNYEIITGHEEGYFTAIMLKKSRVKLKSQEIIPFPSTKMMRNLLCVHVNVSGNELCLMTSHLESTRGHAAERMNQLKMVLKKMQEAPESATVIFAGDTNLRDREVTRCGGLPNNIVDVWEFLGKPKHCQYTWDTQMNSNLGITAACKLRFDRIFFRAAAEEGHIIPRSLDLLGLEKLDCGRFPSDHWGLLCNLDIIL
Description: Inhibition of human recombinant TDP2 using 19-mer single stranded DNA containing 5'-phosphotyrosine as substrate after 15 mins by PAGE

[2] = biological target: T2, DNA topoisomerase 1 (Homo sapiens) (UniProt P11387); assay: Activity at recombinant top1 (unknown origin) assessed as DNA cleavage using 3'-[32P]-labeled 117-bp DNA as substrate at 0.1 to 100 uM after 20 mins by SDS-PAGE
T2 sequence (whole entry): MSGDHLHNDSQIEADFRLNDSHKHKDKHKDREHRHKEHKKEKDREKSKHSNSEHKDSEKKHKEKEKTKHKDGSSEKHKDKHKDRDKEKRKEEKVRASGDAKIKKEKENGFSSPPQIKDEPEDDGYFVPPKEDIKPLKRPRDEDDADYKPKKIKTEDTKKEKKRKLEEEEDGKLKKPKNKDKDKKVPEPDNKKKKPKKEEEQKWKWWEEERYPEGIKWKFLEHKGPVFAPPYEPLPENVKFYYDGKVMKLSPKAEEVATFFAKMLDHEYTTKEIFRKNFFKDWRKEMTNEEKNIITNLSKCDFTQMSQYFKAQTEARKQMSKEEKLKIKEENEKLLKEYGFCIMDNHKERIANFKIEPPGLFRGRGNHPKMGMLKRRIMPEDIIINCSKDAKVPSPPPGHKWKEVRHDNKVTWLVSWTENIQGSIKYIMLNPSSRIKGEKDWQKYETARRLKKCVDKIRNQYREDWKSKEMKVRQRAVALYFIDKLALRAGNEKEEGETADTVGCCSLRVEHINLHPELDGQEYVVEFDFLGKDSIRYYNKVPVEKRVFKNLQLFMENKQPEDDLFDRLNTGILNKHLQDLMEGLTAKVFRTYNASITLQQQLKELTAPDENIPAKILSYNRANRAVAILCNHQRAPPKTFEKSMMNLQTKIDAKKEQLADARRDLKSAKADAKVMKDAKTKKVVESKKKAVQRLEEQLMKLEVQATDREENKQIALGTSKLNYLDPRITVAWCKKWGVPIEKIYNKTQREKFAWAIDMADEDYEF

[3] = Cytotoxicity against human NCI60 cells assessed as cell growth at 10 uM after 48 hrs; assay type: functional; conditions: NCI60, 48 h, read-out: Activity
[4] = Antiproliferative activity against human UACC62 cells after 48 hrs; assay type: functional; conditions: UACC-62, 48 h
[5] = Antiproliferative activity against human SF539 cells after 48 hrs; assay type: functional; conditions: SF-539, 48 h
[6] = Antiproliferative activity against human DU145 cells after 48 hrs; assay type: functional; conditions: DU-145, 48 h
[7] = Antiproliferative activity against human OVCAR3 cells after 48 hrs; assay type: functional; conditions: OVCAR-3, 48 h
SN12C = assay: Antiproliferative activity against human SN12C cells after 48 hrs; assay type: functional
MCF7 = assay: Antiproliferative activity against human MCF7 cells after 48 hrs; assay type: functional; conditions: MCF7, 48 h
[8] = Antiproliferative activity against human HCT116 cells after 48 hrs; assay type: functional; conditions: HCT-116, 48 h
[9] = Antiproliferative activity against human HOP62 cells after 48 hrs; assay type: functional; conditions: HOP-62, 48 h
[10] = Antiproliferative activity against human NCI60 cells after 48 hrs; assay type: functional; conditions: NCI60, 48 h
[11] = biological target: Tyrosyl-DNA phosphodiesterase 1 (Homo sapiens, UniProt Q9NUW8)
Tyrosyl-DNA phosphodiesterase 1, sequence (Q9NUW8 whole entry): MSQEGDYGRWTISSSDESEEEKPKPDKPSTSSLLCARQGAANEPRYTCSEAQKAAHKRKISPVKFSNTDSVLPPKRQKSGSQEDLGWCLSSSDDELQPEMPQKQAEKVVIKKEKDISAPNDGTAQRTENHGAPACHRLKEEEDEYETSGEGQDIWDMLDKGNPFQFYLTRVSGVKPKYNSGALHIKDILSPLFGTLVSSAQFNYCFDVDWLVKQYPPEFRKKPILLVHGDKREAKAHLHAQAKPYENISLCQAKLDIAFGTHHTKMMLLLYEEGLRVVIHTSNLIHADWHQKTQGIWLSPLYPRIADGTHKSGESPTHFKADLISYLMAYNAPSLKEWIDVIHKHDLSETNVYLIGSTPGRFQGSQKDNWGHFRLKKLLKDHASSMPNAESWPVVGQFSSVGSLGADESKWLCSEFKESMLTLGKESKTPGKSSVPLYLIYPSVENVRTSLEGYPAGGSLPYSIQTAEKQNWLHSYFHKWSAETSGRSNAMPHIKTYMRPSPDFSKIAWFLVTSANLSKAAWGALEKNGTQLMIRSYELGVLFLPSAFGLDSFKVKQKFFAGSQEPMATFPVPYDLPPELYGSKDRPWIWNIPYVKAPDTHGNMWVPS
Description: Inhibition of recombinant TDP1 (unknown origin) using single stranded 5'-[32P]-labeled DNA containing 3'-phosphotyrosine as substrate after 15 mins by PAGE

NCCCn1c2c(c3cnccc3c1=O)C(=O)c1ccccc1-2
IC50 [1]: 111 µM | Activity [2]: 50%

O=C1c2ccccc2-c2c1c1cccnc1c(=O)n2CCCn1ccnc1
growth at 10 µM [3]: 49.6% | Activity [2]: 75%

O=C1c2ccccc2-c2c1c1ncccc1c(=O)n2CCCn1ccnc1
growth at 10 µM [3]: 83.6% | Activity [2]: 50%

CN(C)CCCn1c2c(c3cnccc3c1=O)C(=O)c1ccccc1-2
GI50 [4]: 0.309 µM | GI50 [5]: 0.38 µM | GI50 [6]: 0.49 µM | GI50 [7]: 1.1 µM | GI50 (SN12C): 0.288 µM | GI50 (MCF7): 0.245 µM | growth at 10 µM [3]: -8.83% | GI50 [8]: 0.245 µM | Activity [2]: 50% | GI50 [9]: 0.398 µM

NCCCn1c2c(c3ccncc3c1=O)C(=O)c1ccccc1-2
IC50 [1]: 111 µM | Activity [2]: 0%

NCCCn1c2c(c3ccccc3c1=O)C(=O)c1ccccc1-2
Activity [2]: 75% | GI50 [10]: 0.32 µM

O=C1c2ccccc2-c2c1c1cnccc1c(=O)n2CCCn1ccnc1
growth at 10 µM [3]: 67.8% | Activity [2]: 50%

CN(C)CCCn1c2c(c3ncccc3c1=O)C(=O)c1ccccc1-2
growth at 10 µM [3]: 44.4% | Activity [2]: 50%

CC[C@@]1(O)C(=O)OCc2c1cc1n(c2=O)Cc2cc3ccccc3nc2-1 [CAMPTOTHECIN]
GI50 [7]: 0.22 µM

NCCCn1c2c(c3cccnc3c1=O)C(=O)c1ccccc1-2
GI50 [4]: 1.35 µM | GI50 [5]: 1.38 µM | GI50 [6]: 1.91 µM | GI50 [7]: 2.29 µM | GI50 (SN12C): 1.12 µM | GI50 (MCF7): 0.417 µM | growth at 10 µM [3]: 12.2% | GI50 [8]: 0.537 µM | Activity [2]: 50% | GI50 [9]: 1.45 µM

CN(C)CCCn1c2c(c3cccnc3c1=O)C(=O)c1ccccc1-2
GI50 [4]: 1.29 µM | GI50 [5]: 0.851 µM | IC50 [11]: 111 µM | GI50 [6]: 1.91 µM | GI50 [7]: 2.4 µM | GI50 (SN12C): 1.12 µM | GI50 (MCF7): 0.363 µM | growth at 10 µM [3]: 5.45% | GI50 [8]: 0.437 µM | Activity [2]: 75% | GI50 [9]: 1.26 µM

O=C1c2ccccc2-c2c1c1ncccc1c(=O)n2C[C@H](O)CO
Activity [2]: 20%

O=C1c2ccccc2-c2c1c1cccnc1c(=O)n2C[C@H](O)CO
growth at 10 µM [3]: 61.7% | Activity [2]: 20%

O=C1c2ccccc2-c2c1c1ccccc1c(=O)n2C[C@H](O)CO
Activity [2]: 75% | GI50 [10]: 8.71 µM

CN(C)CCCn1c2c(c3ccncc3c1=O)C(=O)c1ccccc1-2
GI50 [4]: 1.23 µM | GI50 [6]: 0.977 µM | GI50 [7]: 2 µM | GI50 (SN12C): 0.955 µM | GI50 (MCF7): 0.331 µM | GI50 [8]: 0.38 µM | GI50 [9]: 0.871 µM

O=C1c2ccccc2-c2c1c1ncccc1c(=O)n2CCCN1CCOCC1
growth at 10 µM [3]: 87.9% | Activity [2]: 50%

NCCCn1c2c(c3ncccc3c1=O)C(=O)c1ccccc1-2
Activity [2]: 50%

O=C1c2ccccc2-c2c1c1ccccc1c(=O)n2CCCN1CCOCC1
Activity [2]: 50% | GI50 [10]: 15.1 µM

O=C1c2ccccc2-c2c1c1cccnc1c(=O)n2CCCN1CCOCC1
growth at 10 µM [3]: 42.9% | Activity [2]: 75%

O=C1c2ccccc2-c2c1c1cnccc1c(=O)n2C[C@H](O)CO
growth at 10 µM [3]: 85.5% | Activity [2]: 20%

O=C1c2ccccc2-c2c1c1ccncc1c(=O)n2C[C@H](O)CO
IC50 [11]: > 111 µM | IC50 [1]: > 111 µM | Activity [2]: 50%

O=C1c2ccccc2-c2c1c1ccccc1c(=O)n2CCCn1ccnc1
Activity [2]: 100% | GI50 [10]: 1.86 µM

O=C1c2ccccc2-c2c1c1ccncc1c(=O)n2CCCn1ccnc1
growth at 10 µM [3]: 47.5%

O=C1c2ccccc2-c2c1c1cnccc1c(=O)n2CCCN1CCOCC1
Activity [2]: 75%

CN(C)CCCn1c2c(c3ccccc3c1=O)C(=O)c1ccccc1-2
Activity [2]: 75%
